Holding throughout (assay type): cell-based
The subject of one series is human CCR5 gene. The series is described as follows: T7E1 endonuclease assay of CCR5 PCR product after electroporation of S. aureus Cas9 plasmid and gRNA STITCHR product into K562 cells. Particulars: 750 ng S. aureus Cas9 plasmid DNA and 250 ng STITCHR product, 48 and 72 hours after electroporation. From the text:
To identify gRNAs that efficiently target disruption of the human CCR5 gene, eleven gRNAs were selected from a larger list of gRNAs obtained from in silico prediction of gRNAs with S. aureus specific PAM sequences. In silico predicted gRNAs were tiered according to the strategy described in Section 8. An abbreviated list of eleven gRNAs with the lowest predictive off-target scores were selected for subsequent screening experiments, based on proximity to the naturally occurring de1ta32 mutation in CCR5 that has been associated with resistance to HIV. The target-specific complementary region of the selected list of eleven gRNAs are depicted in Table 15.
A DNA plasmid encoding an S. aureus expression cassette (AF002) and a gRNA-specific STITCHR product, which is a DNA molecule consisting of a U6 promoter driving expression of the chimeric gRNA (i.e., a target-specific complementary sequence and the S. aureus gRNA scaffold), were electroporated into K562 cells using the Amaxa Nucleofector system and the program and protocol for K562 cells per the manufacturer's instructions. In brief, 750 ng S. aureus Cas9 plasmid DNA and 250 ng of STITCHR product were used for each gRNA. […]

The test system of series [1] is CCR5 locus. The series is described as follows: T7E1 endonuclease assay at CCR5 after Cas9 RNP electroporation of human cord blood CD34+ HSCs. Particulars: human CB CD34+ HSCs, WT Cas9 RNP, 5 μg each per 200,000 cells, 72 hours after electroporation. From the text:
Transplantation of autologous CD34^+ hematopoietic stem cells (HSCs, also known as hematopoietic stem/progenitor cells or HSPCs) that have been edited to disrupt expression of CXCR4 or CCR5 gene products would prevent entry of the HIV virus HSC progeny that are normally susceptible to HIV infection (e.g., macrophages and CD4 T lymphocytes). Multiplex genome editing with the Cas9 RNP complexed to modified gRNAs precisely alters more than one endogenous gene targets by creating indels at two different cut sites can lead to knock down of gene expression at multiple edited loci. In this Example, single target and multiplex genome editing was evaluated in human umbilical cord blood (CB) CD34^+ cells after electroporation of wild-type S. pyogenes Cas9, wild-type S. aureus Cas9 or D10A nickase. Briefly, Cas9 protein was complexed with modified sgRNAs targeting CXCR4 or CCR5. […] Seventy-two hours after electroporation of RNP with the Amaxa nucleofector system, CD34^+ HSCs were collected, gDNA isolated and CXCR4 and CCR5 PCR products analyzed by T7E1 endonuclease assay to evaluate targeted disruption of these HIV co-receptors (Table 19). Table 19 depicts experimental design associated with Example 10 to evaluate gene editing determined by T7E1 endonuclease assay analysis of the at CXCR4 and CCR5 loci after electroporation of primary human CD34^+ HSCs with S. aureus and/or S. pyogenes RNPs.

Series [2] deals with CCR5 locus. Description: T7E1 analysis of gene disruption at CCR5 after Cas9 RNP electroporation of primary human T lymphocytes. Particulars: human CD4+ T lymphocytes, WT Cas9 RNP, 5 μg each RNP per 200,000 cells, 72 hours after electroporation. An excerpt:
While transplantation of autologous CD34^+ HSCs genetically modified to prevent expression of the wild-type CXCR4 or the CCR5 would provide a long-term cure to HIV infection, the myeloablative conditioning associated with HSC transplantation destroys host adaptive immunity […] until the T cell pool is reconstituted after HSC engraftment is acheived, which can take several months. This delay in adaptive immune reconstitution puts patients at risk for the development of opportunistic infections during the acute phase of early engraftment following HSC transplantation. […] In this Example, single and multiplex genome editing in human T lymphocytes after electroporation of Cas9 RNP targeting the CXCR4 locus, the CCR5 locus, or both simultaneously (multiplexing) was evaluated after electroporation of CXCR4 and CCR5 gRNAs that were in vitro transcribed and modified to have an ARCA cap at the 5′ end and a polyA (20A) tail at the 3′ end. […] Table 16 depicts experimental design associated with Example 9 to evaluate gene editing as determined by T7E1 endonuclease assay analysis of the CXCR4 and CCR5 loci after electroporation of primary human T lymphocytes with S. aureus and/or S. pyogenes RNPs. […]

Regarding “CCR5_Sa3: S. aureus gRNA targeting CCR5; GUGGUGACAAGUGUGAUCAC (SEQ ID NO: 488) (RNA, backbone not given here; in vitro transcribed gRNA with scaffold, 5' ARCA cap, 3' polyA (20A) tail)”, the “indels in CCR5” value in the series with human CCR5 gene is “about 39%”. Besides, the “% editing at CCR5” value was 0.44% in the series with CCR5 locus [1] and 1.98% in the series on CCR5 locus [2].

The record behind these values is patent US20180119123A1, “CRISPR/CAS-RELATED METHODS AND COMPOSITIONS FOR TREATING HIV INFECTION AND AIDS” (EDITAS MEDICINE, INC., priority 2015, published 2018).
